# Laboratory results reported in paper PMC9082844 (Journal of Biomedical Science, 2022).
# Like-named read-outs stand apart in the source and are kept apart here.
# Columns and labels:
# KDM4A = target: T1, KDM4A (Homo sapiens, UniProt O75164); test: FDH-coupled demethylase assay, KDM4A; assay type: biochemical; conditions: pyrocatechol analogue; read-out: inhibitory effect
# T1 sequence (O75164 1-1064): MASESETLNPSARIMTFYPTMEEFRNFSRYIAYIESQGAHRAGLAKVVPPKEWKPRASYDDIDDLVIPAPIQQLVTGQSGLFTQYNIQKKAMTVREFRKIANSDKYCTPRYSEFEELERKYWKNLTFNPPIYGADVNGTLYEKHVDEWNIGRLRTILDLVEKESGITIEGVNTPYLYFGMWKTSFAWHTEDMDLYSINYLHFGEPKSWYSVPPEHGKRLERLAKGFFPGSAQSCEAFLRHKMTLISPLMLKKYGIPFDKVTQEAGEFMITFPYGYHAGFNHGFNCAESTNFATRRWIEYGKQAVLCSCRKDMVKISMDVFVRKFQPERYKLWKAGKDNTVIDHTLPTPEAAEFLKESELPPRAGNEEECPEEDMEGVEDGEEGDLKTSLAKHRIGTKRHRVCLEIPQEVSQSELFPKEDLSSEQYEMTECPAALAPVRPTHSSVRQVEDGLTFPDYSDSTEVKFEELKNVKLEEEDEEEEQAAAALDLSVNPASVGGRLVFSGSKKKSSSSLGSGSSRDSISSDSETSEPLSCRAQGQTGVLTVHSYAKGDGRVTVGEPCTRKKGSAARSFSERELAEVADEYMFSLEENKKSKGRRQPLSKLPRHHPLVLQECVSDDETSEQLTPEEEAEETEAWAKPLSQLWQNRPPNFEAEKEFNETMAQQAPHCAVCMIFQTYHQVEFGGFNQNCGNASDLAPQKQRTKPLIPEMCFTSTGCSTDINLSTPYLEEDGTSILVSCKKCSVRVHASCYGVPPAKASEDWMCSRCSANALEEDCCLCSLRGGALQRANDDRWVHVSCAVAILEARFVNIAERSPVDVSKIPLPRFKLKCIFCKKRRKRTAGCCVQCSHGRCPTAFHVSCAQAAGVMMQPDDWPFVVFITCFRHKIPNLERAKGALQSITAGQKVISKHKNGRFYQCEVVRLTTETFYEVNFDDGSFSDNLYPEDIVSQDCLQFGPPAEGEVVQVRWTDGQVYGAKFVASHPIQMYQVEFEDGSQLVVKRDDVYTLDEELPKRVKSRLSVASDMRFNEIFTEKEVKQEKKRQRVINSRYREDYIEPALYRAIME
# JMJD2E/KDM4E = tested on: JMJD2E/KDM4E; set-up: method as in PMID 24260783, PMID 21124847; conditions: in vitro; cited from earlier work
# C4-2B xenografts = test: C4-2B xenograft; assay type: in vivo, Balb/c nu/nu mice
# Experimental: C4-2B cells (1 × 10^6 cells) were suspended in a culture medium and mixed with Matrigel Matrix (BD, Franklin Lakes, NJ, USA). The mixtures were implanted subcutaneously into six- to eight-week-old male Balb/c nu/nu mice. […] Tumor volumes were measured for up to 3 weeks. The tumor volume was calculated using the formula: length × width × height × 0.52. Statistical analysis was conducted as described below. The animal protocols for mice experiments were approved by National Tsing Hua University Institutional Animal Care and Use Committee (approval number: NTHU-IACUC-10478) and carried out under the institutional guidelines with animal welfare standards.
# Cells were treated with different concentrations of M or PLGA-M for 24 h, followed by MTT assay. B C4-2B cells (1 × 10^6) were implanted subcutaneously in the hindlimb of nude mice. […] Tumor volumes were measured for up to 3 weeks. Tumor volume was calculated using the formula (length × width × height × 0.52). Statistical significance was evaluated using Student’s t-test. C Representative IHC images of Ki67 and CD31 analysis of xenograft tumor sections from mice treated with vehicle, PLGA-M, Enza, or Enza + PLGA-M. D The proportion of Ki67 + cell was rescored in each field (400 ×) for six random fields in each group of IHC images. CD31 positive vessels in each field (100 ×) were scored for six random fields in each group. Significance was calculated using Student’s t-test. *P < 0.05; **P < 0.01; ***P < 0.001
# KDM4B [1] = target: T2, KDM4B (Homo sapiens, UniProt O94953); test: FDH-coupled demethylase assay, KDM4B; assay type: biochemical
# T2 sequence (O94953 1-1096): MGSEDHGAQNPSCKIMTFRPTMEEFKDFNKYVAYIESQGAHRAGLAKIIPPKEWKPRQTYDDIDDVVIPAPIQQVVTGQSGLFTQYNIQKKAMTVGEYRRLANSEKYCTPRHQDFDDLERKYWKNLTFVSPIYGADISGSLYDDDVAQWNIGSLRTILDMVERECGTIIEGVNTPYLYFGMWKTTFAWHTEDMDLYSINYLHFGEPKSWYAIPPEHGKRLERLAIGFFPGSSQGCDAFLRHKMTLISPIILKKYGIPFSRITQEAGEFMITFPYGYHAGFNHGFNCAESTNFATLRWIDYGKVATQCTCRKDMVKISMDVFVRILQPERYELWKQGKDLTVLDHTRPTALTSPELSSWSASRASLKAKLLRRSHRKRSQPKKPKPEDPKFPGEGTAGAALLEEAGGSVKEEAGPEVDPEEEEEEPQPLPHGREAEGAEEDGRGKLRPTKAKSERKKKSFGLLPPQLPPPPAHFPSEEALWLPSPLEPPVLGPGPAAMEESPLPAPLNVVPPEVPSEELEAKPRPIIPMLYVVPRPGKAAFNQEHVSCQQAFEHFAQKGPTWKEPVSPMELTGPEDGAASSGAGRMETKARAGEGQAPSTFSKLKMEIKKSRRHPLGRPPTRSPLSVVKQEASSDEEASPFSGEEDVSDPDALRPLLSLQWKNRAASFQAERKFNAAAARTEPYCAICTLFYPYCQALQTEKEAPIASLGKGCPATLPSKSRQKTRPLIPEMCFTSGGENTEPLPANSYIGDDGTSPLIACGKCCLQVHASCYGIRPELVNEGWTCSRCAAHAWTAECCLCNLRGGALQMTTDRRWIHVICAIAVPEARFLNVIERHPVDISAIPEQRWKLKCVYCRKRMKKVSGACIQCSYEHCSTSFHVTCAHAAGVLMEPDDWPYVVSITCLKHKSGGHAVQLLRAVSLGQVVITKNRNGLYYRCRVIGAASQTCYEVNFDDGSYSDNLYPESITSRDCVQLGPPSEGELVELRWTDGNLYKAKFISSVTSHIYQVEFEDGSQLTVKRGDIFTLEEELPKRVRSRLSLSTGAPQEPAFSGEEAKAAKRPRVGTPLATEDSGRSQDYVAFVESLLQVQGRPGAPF
# Experimental: All the reagents were stored at -30 °C.
# C4-2B cells = test: Histone methylation levels in treated C4-2B cells, western blot; assay type: cell-based; conditions: treated 2 days
# Experimental: Total cell lysates were obtained by lysing the cell with buffer [50 mM Tris–HCl pH7.5 (Thermo Fisher Scientific, Waltham, MA, USA), 150 mM NaCl (Honeywell International, Inc., Charlotte, NC, USA), 0.5% Triton X-100 (Sigma-Aldrich), 10% glycerol (Honeywell International, Inc.), 1 mM EDTA (Affymetrix Inc.), and cock-tail protease inhibitors] for 15 min on ice, followed by 10 min of sonication cycle (30 s on, 30 s off) on ice. The level of total histone 3 and trimethylated histone H3K9 was analyzed by western blotting using anti-histone 3 (Cell Signaling, Danvers, MA, USA) and anti-H3K9me3 (Millipore, Burlington, MA, USA).
# (§1) B H3K9me3 and H3K36me3 levels in myricetin-treated C4-2B cells for 2 days. The H3K9me3, H3K36me3, and H3 signals were detected in cell lysates by western blot analysis. M myricetin
# C4-2B = test: MTT assay, C4-2B; assay type: cell-based; conditions: 72 h, 3 days, read-out: IC50, proliferation
# CWR22Rv1 = test: MTT assay, CWR22Rv1; assay type: cell-based; conditions: 3 days
# Experimental: (§2) Cells (3 × 10^3) were seeded in a 96-well plate 1 day before the treatment. Cell proliferation was measured by MTT colorimetric assay according to the manufacturer’s instruction (Roche, Indianapolis, IN, USA).
# as §1
# KDM4B [2] = target: T2, KDM4B; test: H3 demethylation with histones as substrate, Western blot, KDM4B; assay type: biochemical; conditions: 50 μM myricetin (legend also 100 μM inhibitor), 37 °C 30 min
# LNCaP cells = test: MTT assay, LNCaP; assay type: cell-based; conditions: Homo sapiens, 72 h, 3 days, read-out: IC50, cell viability
# Experimental: as §2
# The IC50 value of each drug was determined by treating cells with the drug (0‒160 μM) for three days. For combination evaluation, a twofold serial dilution of each drug and its combination points above and below its IC50 value was used in an array format. Combination index (CI) values were calculated by CompuSyn software. The values of the combination dose–response curve, which represents drug-effect-shift analysis, were normalized to IC50 values of each single molar concentration of drugs (IC50 eq), and the plots were generated by Graphpad Prism 7.
# as §1
# [3] = cited from earlier work
# RWPE-1 = test: MTT assay, RWPE-1; assay type: cell-based; conditions: immortalized normal RWPE-1, 3 days
# Experimental: as §2, §1
# LNCaP cell = tested on: LNCaP cell; set-up: method as in PMID 24971742; conditions: cited from earlier work
smiles,measurement,setting,value
"O=C(O)c1ccc(O)c(O)c1 [BPRKD063S0, 3,4-dihydroxybenzoic acid]",IC50,KDM4A,0.56 µM
CN(C)CCCNC(=O)c1ccc(-c2cc(O)c3ncccc3c2)cc1 [ML324],inhibitory activity toward JMJD2E/KDM4E,JMJD2E/KDM4E,submicromolar
CNC(=O)c1ccc(N2C(=S)N(c3ccc(C#N)c(C(F)(F)F)c3)C(=O)C2(C)C)cc1F [enzalutamide],tumor growth vs vehicle at day 13,"C4-2B xenografts; PLGA-M i.p. 20 mg/kg three times a week, Enza oral 12.5 mg/kg five times a week, p = 0.0002",significant impairment of tumor growth
same,CD31 in xenografts (IHC),C4-2B xenografts; vs vehicle group,significantly higher level of CD31 was detected in the vehicle group
same,Ki-67 expression in xenografts (IHC),C4-2B xenografts; vs vehicle group,significantly lower
"O=c1c(O)c(-c2ccc(O)c(O)c2)oc2cc(O)cc(O)c12 [Quercetin, 2-(3,4-dihydroxyphenyl)-3,5,7-trihydroxychromen-4-one]",IC50,KDM4B [1]; FDH-coupled assay,2.4 µM
same,KDM4B Relative Activity (%),"KDM4B [1]; FDH-coupled assay, compound concentration not given",5.3%
"O=c1c(O)c(-c2cc(O)c(O)c(O)c2)oc2cc(O)cc(O)c12 [Myricetin, 3,5,7-trihydroxy-2-(3,4,5-trihydroxyphenyl)-4H-chromen-4-one]",H3K9me3 level vs untreated cells,C4-2B cells,higher level
same,H3K36me3 signal vs untreated cells,C4-2B cells,comparable
same,IC50,C4-2B,20.6 ± 0.9 µM
same,Ki,"KDM4B [1]; increasing concentrations of H3K9me3 peptide, read-out: Ki, non-competitive with H3K9me3 peptide, KDM4B",1.01 µM
same,Ki,"KDM4B [1]; increasing concentrations of α-KG, Lineweaver–Burk, read-out: Ki, competitive with α-KG, KDM4B",0.53 µM
same,proliferation,CWR22Rv1,significantly reduced
same,demethylation of H3K9me3 or H3K36me3 by KDM4B,KDM4B [2],blocked
same,IC50,LNCaP cells,18.5 ± 0.8 µM
same,bioavailability through the oral route,[3],poor
same,effect on cell growth,RWPE-1,essentially no effect
O=[N+]([O-])c1cc([N+](=O)[O-])c(/C=C/c2ccc(Cl)c(Cl)c2)cc1/C=C/c1ccc(Cl)c(Cl)c1 [NSC636819],LNCaP cell proliferation,LNCaP cell,strongly inhibits
